Experimental data: DBAASP
In brackets after ≈: the same amount, converted by molar mass. Several values for one entry are separate records, joined by “and”; a condition that tells them apart may be missing. Equal values may be shown once. Blank lines part the entries; values can stand above or below the compound they belong to.

Legend:
Assay in all cases: ≥ marks a high value that may be exact or a test limit, other limits are often not marked, values filed in µg/mL are converted to µM
[1] = system: Escherichia coli ATCC 8739
[2] = system: Staphylococcus aureus ATCC 6538
[3] = system: Pseudomonas aeruginosa ATCC 9027
[4] = system: Klebsiella pneumoniae ATCC 10031
[5] = system: Micrococcus luteus ATCC 10240
[6] = system: Salmonella enterica subsp. enterica serovar Typhimurium ATCC 14028
[7] = system: Staphylococcus epidermidis ATCC 12228
[8] = system: Staphylococcus aureus ATCC 6538P
[9] = system: Escherichia coli ATCC 25922
[10] = system: Bacillus subtilis ATCC 6633
[11] = system: Pseudomonas aeruginosa ATCC 27853
[12] = system: Shigella dysenteriae ATCC 9752
[13] = system: Acinetobacter baumannii NM75
[14] = system: Candida albicans ATCC 90028
[15] = system: Staphylococcus aureus ATCC 25923
[16] = system: Escherichia coli ATCC 25726
Acinetobacter baumannii = system: Acinetobacter baumannii
[17] = system: Acinetobacter baumannii NM35
[18] = system: Acinetobacter baumannii NM8
[19] = system: Acinetobacter baumannii NM109
[20] = system: Acinetobacter baumannii NM124
Escherichia coli K91BK = system: Escherichia coli K91BK
[21] = system: Bacillus subtilis var. niger ATCC 9372
[22] = system: Bacillus anthracis Sterne 34F2
[23] = system: Staphylococcus aureus ATCC 43300
Yersinia enterocolitica = system: Yersinia enterocolitica
Escherichia coli = system: Escherichia coli
[24] = system: Staphylococcus aureus ATCC 29213
[25] = system: Salmonella enterica subsp. enterica serovar Enteritidis
Salmonella sp. = system: Salmonella sp.

SMILES: CC[C@H](C)[C@H](NC(=O)[C@H](C)NC(=O)[C@H](CCCCN)NC(=O)[C@H](CCCN=C(N)N)NC(=O)CNC(=O)[C@H](Cc1ccccc1)NC(=O)[C@H](CCCCN)NC(=O)[C@H](CCCCN)NC(=O)[C@@H](NC(=O)[C@H](CC(C)C)NC(=O)[C@H](CCCCN)NC(=O)CNC(=O)[C@H](Cc1ccccc1)NC(=O)[C@H](CC(C)C)NC(=O)CNC(C)=O)[C@@H](C)CC)C(=O)N[C@@H](CO)C(=O)N[C@@H](Cc1ccc(O)cc1)C(=O)N[C@@H](C)C(=O)N[C@H](C(=O)N[C@@H](CCCCN)C(=O)N[C@@H](CCCCN)C(=O)N[C@@H](C)C(=O)N[C@@H](CCCN=C(N)N)C(=O)NCC(=O)N[C@@H](CCCCN)C(=O)N[C@@H](Cc1cnc[nH]1)C(N)=O)C(C)C [GLFGKLIKKFGRKAISYAVKKARGKH]
MIC (Escherichia coli K91BK): ≥ 100 µM
MIC [21]: 2.37 µM (≈ 6.98 µg/mL)
MIC [22]: 6.25 µM (≈ 18.4 µg/mL)

SMILES: CC(C)C[C@H](NC(=O)[C@H](CC(C)C)NC(=O)[C@H](Cc1c[nH]c2ccccc12)NC(=O)[C@H](CCCCN)NC(=O)[C@H](CC(C)C)NC(=O)[C@H](CC(C)C)NC(=O)[C@@H](N)CCCCN)C(=O)N[C@@H](CCCCN)C(N)=O [KLLKWLLK]
MIC [4]: ≥ 96 µM
MIC [5]: ≥ 96 µM
MIC [6]: > 192 µM
MIC [7]: 192 µM (≈ 200 µg/mL)
MIC [8]: 24 µM (≈ 25 µg/mL)
MIC [9]: 96 µM (≈ 99.9 µg/mL)
MIC [10]: ≥ 48 µM
MIC [11]: 96 µM (≈ 99.9 µg/mL)
MIC [12]: ≥ 192 µM

SMILES: CC(=O)N[C@@H](CCCCN)C(=O)N[C@@H](Cc1c[nH]c2ccccc12)C(=O)N[C@@H](CCCCN)C(=O)N[C@@H](CCCCN)C(=O)N[C@@H](CC(C)C)C(=O)N[C@@H](CC(C)C)C(=O)N[C@@H](CCCCN)C(=O)N[C@@H](CCCCN)C(=O)N1CCC[C@H]1C(=O)N[C@@H](CC(C)C)C(=O)N[C@@H](CC(C)C)C(=O)N[C@@H](CCCCN)C(=O)N[C@@H](CCCCN)C(=O)N[C@@H](CC(C)C)C(=O)N[C@@H](CC(C)C)C(=O)N[C@@H](CCCCN)C(=O)N[C@@H](CCCCN)C(=O)N[C@@H](CC(C)C)C(N)=O [KWKKLLKKPLLKKLLKKL]
MIC (Escherichia coli K91BK): ≥ 100 µM
MIC [21]: 3.13 µM (≈ 7.16 µg/mL)
MIC [22]: ≥ 100 µM

SMILES: CSCC[C@H](NC(=O)[C@H](CCCN=C(N)N)NC(=O)[C@H](CCCN=C(N)N)NC(=O)[C@@H](N)CC(N)=O)C(=O)N[C@@H](CCCCN)C(=O)N[C@@H](Cc1c[nH]c2ccccc12)C(=O)N[C@@H](CCCCN)C(=O)N[C@@H](CCCCN)C(N)=O [NRRMKWKK]
MIC [23]: > 50 µM
MIC (Yersinia enterocolitica): ≥ 50 µM
MIC [9]: > 50 µM
MIC (Escherichia coli): > 50 µM
MIC [24]: > 50 µM
MIC [25]: ≥ 50 µM
MIC [11]: > 50 µM
MIC (Salmonella sp.): ≥ 50 µM

SMILES: CC[C@H](C)[C@H](NC(=O)[C@H](CCC(N)=O)NC(=O)[C@@H](N)CCCN=C(N)N)C(=O)N[C@@H](Cc1c[nH]c2ccccc12)C(=O)N[C@@H](Cc1c[nH]c2ccccc12)C(=O)N[C@@H](Cc1c[nH]c2ccccc12)C(=O)N[C@@H](Cc1c[nH]c2ccccc12)C(=O)N[C@@H](CCC(N)=O)C(=O)N[C@@H](CCCN=C(N)N)C(N)=O [RQIWWWWQR]
MIC [23]: > 34.6 µM
MIC (Yersinia enterocolitica): 17.3 µM (≈ 25 µg/mL)
MIC [9]: 4.33 µM (≈ 6.25 µg/mL)
MIC (Escherichia coli): 4.33 µM (≈ 6.25 µg/mL)
MIC [24]: 34.6 µM (≈ 50 µg/mL)
MIC [25]: 8.65 µM (≈ 12.5 µg/mL)
MIC (Salmonella sp.): 4.33 µM (≈ 6.25 µg/mL)

SMILES: CC[C@H](C)[C@H](NC(=O)[C@H](CCCCN)NC(=O)[C@@H](NC(=O)[C@H](CCCN=C(N)N)NC(=O)[C@H](CCCN=C(N)N)NC(=O)[C@H](CCSC)NC(=O)[C@H](CCCCN)NC(=O)[C@H](Cc1c[nH]c2ccccc12)NC(=O)[C@@H](N)CCCN=C(N)N)[C@@H](C)CC)C(=O)N[C@@H](CCC(N)=O)C(=O)N[C@@H](CCCN=C(N)N)C(N)=O [RWKMRRIKIQR]
MIC [23]: > 31.8 µM
MIC (Yersinia enterocolitica): 31.8 µM (≈ 50 µg/mL)
MIC [9]: > 31.8 µM
MIC (Escherichia coli): > 31.8 µM
MIC [24]: > 31.8 µM
MIC [25]: 31.8 µM (≈ 50 µg/mL)
MIC (Salmonella sp.): 31.8 µM (≈ 50 µg/mL)

SMILES: CC(=O)N[C@@H](Cc1c[nH]c2ccccc12)C(=O)N[C@@H](CCCN=C(N)N)C(=O)N[C@@H](CO)C(=O)N[C@@H](CC(C)C)C(=O)NCC(=O)N[C@@H](CCCN=C(N)N)C(=O)N[C@H](C(=O)N[C@@H](CC(C)C)C(=O)N[C@@H](CC(C)C)C(=O)N[C@@H](CCCN=C(N)N)C(=O)N[C@@H](CC(C)C)C(=O)N[C@@H](CO)C(=O)N[C@@H](Cc1cnc[nH]1)C(=O)N[C@@H](C)C(=O)N[C@@H](CC(C)C)C(=O)N[C@@H](CCCCN)C(=O)N1CCC[C@H]1C(=O)N[C@@H](CC(C)C)C(=O)N[C@@H](C)C(=O)N[C@@H](CCCN=C(N)N)C(=O)N[C@@H](CCCN=C(N)N)C(=O)N[C@@H](CO)C(=O)NCC(=O)N[C@@H](Cc1c[nH]c2ccccc12)C(N)=O)[C@@H](C)O [WRSLGRTLLRLSHALKPLARRSGW]
MIC (Escherichia coli K91BK): ≥ 100 µM
MIC [21]: 2.1 µM (≈ 6.03 µg/mL)
MIC [22]: 7.87 µM (≈ 22.6 µg/mL)

Now from value to compound:

MIC [1]: 5.2 µM and 7.3 µM
MIC [2]: 2.5 µM and 4.7 µM
MIC [3]: 5.5 µM and 8.7 µM
SMILES: NCCCC[C@H](NC(=O)[C@H](Cc1c[nH]c2ccccc12)NC(=O)[C@H](Cc1ccccc1)NC(=O)[C@H](Cc1c[nH]c2ccccc12)NC(=O)[C@@H](N)CS)C(=O)N[C@@H](Cc1c[nH]c2ccccc12)C(=O)N[C@@H](Cc1c[nH]c2ccccc12)C(=O)N[C@@H](CCCN=C(N)N)C(=O)N[C@@H](CCCN=C(N)N)C(=O)N[C@@H](CCCN=C(N)N)C(=O)N[C@@H](CCCN=C(N)N)C(=O)N[C@@H](CCCN=C(N)N)C(N)=O [CWFWKWWRRRRR]

MIC [4]: 8.36 µM (≈ 12.5 µg/mL)
MIC [5]: 2.07 µM (≈ 3.1 µg/mL)
MIC [6]: 33.4 µM (≈ 50 µg/mL)
MIC [7]: 4.21 µM (≈ 6.3 µg/mL)
MIC [8]: 4.21 µM (≈ 6.3 µg/mL)
MIC [9]: 8.36 µM (≈ 12.5 µg/mL)
MIC [10]: 2.07 µM (≈ 3.1 µg/mL)
MIC [11]: 8.36 µM (≈ 12.5 µg/mL)
MIC [12]: 16.7 µM (≈ 25 µg/mL)
SMILES: CC(C)C[C@H](NC(=O)[C@H](Cc1c[nH]c2ccccc12)NC(=O)[C@H](CCCCN)NC(=O)[C@H](CC(C)C)NC(=O)[C@@H](N)Cc1ccccc1)C(=O)N[C@@H](Cc1ccccc1)C(=O)N[C@@H](CCCCN)C(=O)N[C@@H](Cc1c[nH]c2ccccc12)C(=O)N[C@@H](C)C(=O)N[C@@H](CCCCN)C(=O)N[C@@H](CCCCN)C(N)=O [FLKWLFKWAKK]

MIC [13]: 3 µM (≈ 6.87 µg/mL)
MIC [14]: 12.5 µM (≈ 28.6 µg/mL)
MIC [15]: 100 µM (≈ 229 µg/mL)
MIC [16]: 12.5 µM (≈ 28.6 µg/mL)
MIC (Acinetobacter baumannii): 6.25 µM (≈ 14.3 µg/mL)
MIC [17]: 3 µM (≈ 6.87 µg/mL)
MIC [18]: 3 µM (≈ 6.87 µg/mL)
MIC [19]: 3 µM (≈ 6.87 µg/mL)
MIC [20]: 3 µM (≈ 6.87 µg/mL)
SMILES: CC[C@H](C)[C@H](NC(=O)CN)C(=O)N[C@@H](Cc1c[nH]c2ccccc12)C(=O)N[C@@H](CCCCN)C(=O)N[C@H](C(=O)N[C@H](C(=O)N[C@@H](CCCCN)C(=O)N[C@@H](CO)C(=O)N[C@@H](CCSC)C(=O)NCC(=O)N[C@@H](CCCCN)C(=O)N[C@H](C(=O)N[C@@H](Cc1ccccc1)C(=O)N[C@@H](C)C(=O)NCC(=O)N[C@@H](C)C(=O)N[C@H](C(=O)N[C@@H](CCCCN)C(=O)N[C@@H](CCC(N)=O)C(=O)N[C@@H](CC(N)=O)C(=O)N[C@@H](CC(C)C)C(N)=O)[C@@H](C)CC)C(C)C)[C@@H](C)CC)[C@@H](C)O [GIWKTIKSMGKVFAGAIKQNL]

MIC [1]: 3.69 µM (≈ 8 µg/mL)
MIC [15]: 29.5 µM (≈ 64 µg/mL)
SMILES: CC[C@H](C)[C@H](NC(=O)[C@H](CCCCN)NC(=O)[C@H](CCCN=C(N)N)NC(=O)[C@H](CC(C)C)NC(=O)[C@@H](NC(=O)[C@H](CCCCN)NC(=O)CNC(=O)[C@H](CC(C)C)NC(=O)[C@@H](NC(=O)[C@H](CCCCN)NC(=O)[C@H](CC(N)=O)NC(=O)[C@H](CCCN=C(N)N)NC(=O)[C@H](C)NC(=O)[C@H](CCSC)NC(=O)[C@@H]1CCCN1)[C@@H](C)CC)[C@@H](C)CC)C(=O)N[C@@H](C)C(=O)N[C@@H](C)C(=O)N[C@@H](Cc1ccccc1)C(=O)N[C@@H](CCCCN)C(=O)O [PMARNKILGKILRKIAAFK]
